Measured values reported in patent US8057800B2, “Immunointeractive molecules and uses thereof” (Circassia Limited, priority 2004, dated 2011).

Columns and labels:
[1] = tested on: peanut specific TCL generated using CPE; experiment: CPE driven peanut specific TCL proliferation assay (3H-thymidine); type: cell-based, human; details: for responders with a proliferative response to the peptide / proliferative response: CPE driven TCL; for responders with a proliferative response to the peptide: 8 responders; for proliferative response: peptide 10 μg/ml, stimulation index ≧2.5; for subjects responding to the peptide who also had a proliferative response to Ara h 2: subjects with a response to Ara h 2 (19-38) and Ara h 2 (28-47)
Protocol: FIG. 4 is a graphical representation of peanut allergic donor peanut specific TCL proliferative responses to Ara h 2 peptides, Ara h 2 and crude peanut extract. Peanut specific TCL (5×10^4 cells/ml) from individuals with peanut allergy generated using CPE were stimulated with Ara h 2 peptides at a concentration of 10 μg/ml in the presence of autologous irradiated PBMC as APC (5×10^4 cells/ml) in 3 day cultures.
(§1) Freshly harvested or frozen stored PBMC were cultured in 24-well plates (Greiner Biotechnik, Germany) at 2.5×10^6 cells per well (2 ml volume) in complete medium with antigen at an optimised concentration for 7 days at 37° C. in a 5% CO2 humidified incubator. In the case of frozen PBMC the cells were first washed once in wash medium, 1 in 10 dilution of PBMC to medium, and pelleted at 329×g for 10 minutes to remove DMSO. At day 7 cells were washed once and resuspended at 1 to 1.5×10^6/ml and added together with 1×10^6/ml washed irradiated (3000 rads; Gammacell 1000 Elite, Nordion International, Inc.) autologous PBMC (from liquid nitrogen stocks) and antigen into fresh 24-well plates. At day 2 following restimulation, 25 U/ml of recombinant human interleukin-2 (rIL-2) was added and at day 4, 1 ml of culture medium was removed and replaced with fresh medium and 25 U/ml rIL-2. For some experiments due to low cell numbers at 2 weeks, 3 week TCLs were generated by restimulation with antigen and rIL-2 as above for a further week. In all experiments T cells were rested for 6 to 7 days after the last addition of antigen and APC.
(§2) 5.0×10^4/well TCL cells were cultured in triplicate in 96-well U bottom plates (Linbro ICN Biomedicals, USA) with antigen or medium alone and rIL-2 as negative and positive controls respectively, in the presence of autologous irradiated (3000 rads) PBMC (5.0×10^4/well). Cultures were incubated for 3 days. In the last 16 hours of culture, wells were pulsed with ^3H-thymidine (1 μCi/well), then harvested onto printed glass fibre filters with a 96-well automatic cell harvester. ^3H-thymidine incorporation was measured by liquid scintillation spectroscopy.
To determine the T cell epitopes of Ara h 2, oligoclonal CPE-specific TCL were generated from PBMC of 21 peanut-allergic donors and 5 non-peanut allergic donors, and stimulated with a nested set of synthetic peptides spanning the entire Ara h 2 sequence (FIG. 1). A peptide concentration of 10 μg/ml was determined to be the optimal stimulating concentration within proliferation assays. Optimisation included assays at both 10 μg/ml and 30 μg/ml. […] In this setting, and because of the limited availability of donor cells and the cost of commercially prepared peptides, the lower concentration was used.
Several approaches to the production of TCL were used, including stimulation of cells with two and three pulses of CPE separated by 7 days each, two pulses of CPE with a third pulse of rAra h 2, again separated by 7 days each, and three stimulations with rAra h 2. Responses by TCL receiving two CPE stimulations were in general lower than those receiving three stimulations, such that it was felt the sensitivity of the assay may be compromised. […] This lead to the use of TCL stimulated with 3 pulses of CPE, each separated by 7 days for all subjects tested.

[2] = tested on: peanut specific TCL generated using CPE and rAra h 2; experiment: rAra h 2 pulsed peanut specific TCL proliferation assay (3H-thymidine); type: cell-based, human
Protocol: FIG. 5 is a graphical representation of peanut allergic donor peanut specific Ara h 2 pulsed TCL proliferative responses Ara h 2 peptides, Ara h 2 and crude peanut extract. Peanut specific TCL (5×10^4 cells/ml) from individuals with peanut allergy were generated using CPE and rAra h 2, then stimulated with Ara h 2 peptides at a concentration of […] in the presence of autologous irradiated PBMC as APC (5×10^4 cells/ml) in 3 day cultures.
as §1
as §2, with “Cultures were incubated for 3 days.” left out, “spectroscopy. […]” for “spectroscopy.”

[3] = tested on: peanut specific TCL generated using CPE; experiment: Cytokine ELISA (IL-5, IFN-γ) of CPE driven TCL supernatants; type: cell-based, human; details: for IL-5 production: 48 hours
Protocol: FIG. 7 is a graphical representation of peanut allergic donor peanut specific Ara h 2 pulsed TCL cytokine responses to Ara h 2 peptides, Ara h 2 and crude peanut extract. Peanut specific TCLs (5×10^4/ml) from individuals with peanut allergy were generated using CPE, then stimulated with Ara h 2 peptides at a concentration of 10 ug/ml in the presence of autologous irradiated PBMC as APC (5×10^4/ml) in 3 day cultures. Cytokine supernatants were collected after 48 hours culture and assayed by specific ELISA. […] Peptides associated with a significant proliferative response are shaded grey.
Supernatants (70-75 μl/well of triplicate cultures) were harvested and pooled from T cell proliferation assay cultures at 48 hours (IL-5, IFN-γ) and frozen at −80° C. Harvested supernatants were replaced with warm (37° C.) complete medium and cells subsequently pulsed and harvested as described previously.
IL-5 and IFN-γ levels in culture supernatants were measured by sandwich ELISA. White Costar (Corning, USA) ELISA plates were coated with capture mAb (IL-5 and IFN-γ, 2 μg/ml; 30 μl/well) diluted in binding buffer overnight at 4° C. Plates were then washed three times in PBS/0.05% Tween (wash buffer) and wells blocked with 100 μl/well of 1% BSA/PBS (blocking buffer) for 1 hour at room temperature. Following three washes in wash buffer, 30 μl/well of serial dilutions of recombinant human IL-5 or IFN-γ (5000-0.15 pg/ml) in blocking buffer-0.05% Tween or culture supernatants were added and incubated overnight at 4° C. Following four washes in wash buffer, plates were incubated with biotinylated detection mAb (IL-5, 1 μg/ml; IFN-γ, 0.5 μg/ml; 50 μl/well) diluted in blocking buffer for 1 hour at room temperature. Plates were then washed 6 times in wash buffer and incubated with a 1 in 2000 dilution of streptavidin-peroxidase (50 μl/well) in blocking buffer for 45 minutes at room temperature. Following 8 washes in wash buffer, 100 μl/well of freshly prepared chemiluminescent substrate (Perkin-Elmer, USA) was used and plates read in a Lumicount microplate glow luminometer (Packard Instrument Company, USA), 0.5 seconds/well, automatic sensitivity setting. Standard curve construction and determination of unknown cytokine levels was performed using Packard Instruments software. IL-5 and IFN-γ ELISA sensitivities were 2 pg/ml and 4 pg/ml, respectively.
To identify the phenotype of T cells associated with a peptide proliferative response, supernatants were collected from TCL cultures 48 hours after stimulation with peptides and assayed for the presence of IL-5 and IFN-γ. For each donor, peptides associated with a proliferative response and two peptides not associated with a proliferative response were tested. […] In general, cytokine responses were at the lower limits of detection. […]

serum IgE = experiment: Western blot of CPE for serum IgE reactivity to Ara h 2; type: binding, human; details: western blotting of CPE
From the text: Following resolution of CPE on a 14% polyacrylamide gel, proteins were transferred to nitrocellulose and probed with sera from the study population, and non-peanut allergic controls. IgE was detected using HRP conjugated mouse anti-human IgE and enhanced chemiluminescence.
SDS-PAGE gels were assembled into stacks in transfer buffer as follows: blotting paper, nitrocellulose membrane, gel and blotting paper. Sample proteins and pre-stained molecular weight markers were electrophoretically transferred from SDS-PAGE gels to nitrocellulose at 30 volts for 3 hours in an Xcell II blot module (Novex, USA). Following transfer, the nitrocellulose membrane was stained with Ponceau S to ensure adequate protein transfer, then cut into strips and blocked by incubation with 10% milk powder-PBS for 1 hour at room temperature. The blocked nitrocellulose membrane was then washed in PBS and incubated with sample sera diluted 1 in 5 with 1% milk powder-PBS-Tween for all proteins except for Ara h 1, whereupon a 1 in 10 serum dilution was used. Incubation took place overnight, following which the blot was washed 3 times in PBS-Tween, 5 minutes/wash. […] The nitrocellulose was then photographed and analysed using Labworks image acquisition software (UVP Laboratory Products, UK). […]

specific IgE = details: cited from earlier work

Molecule: PYDRRGAGSSQHQERCCNEL (Peanut Ara h 2) [Ara h 2 (73-92), Ara h 2 20-mer peptide, residues 73-92]
- responders with a proliferative response to the peptide [1]: 3 of the 8
- pattern of reactivity of subject 6 ([2]; subject 6, rAra h 2 pulsed TCL): did not include

Molecule: RCMCEALQQIMENQSDRLQG (Peanut Ara h 2) [Ara h 2 (100-119), Ara h 2 20-mer peptide, residues 100-119]
- proliferative response [1]: inducing proliferative responses

Molecule: RQQWELQGDRRCQSQLERAN (Peanut Ara h 2) [Ara h 2 (19-38), Ara h 2 20-mer peptide, residues 19-38]
- responders with a proliferative response to the peptide [1]: 3 of the 8
- subjects demonstrating their greatest response to this peptide ([1]; response magnitude ranked for each subject): 3
- subjects responding to the peptide who also had a proliferative response to Ara h 2 [1]: 60%
- reactivity of subject 10 ([2]; subject 10, both types of TCL preparation): reacted
- magnitude of response relative to other peptides ([2]; subject 10, rAra h 2 pulsed TCL): less than that generated by stimulation with Ara h 2 (37-56) and Ara h 2 (46-65)
- IL-5/IFN-γ ratio ([3]; subject 10, CPE driven TCL): ~7
- IL-5 production ([3]; subject 10, CPE driven TCL): 540 pg/mL
- IL-5/IFN-γ ratio ([3]; subject 21, CPE driven TCL): approximately 20
- IL-5 production ([3]; subject 21, CPE driven TCL): 2054 pg/mL

Molecule: RRCQSQLERANLRPCEQHLM (Peanut Ara h 2) [Ara h 2 (28-47), Ara h 2 20-mer peptide, residues 28-47]
- proliferative response [1]: inducing proliferative responses
- subjects responding to the peptide who also had a proliferative response to Ara h 2 [1]: 60%

B1: Ara h 2: major peanut allergen, a glycoprotein of the conglutin seed storage family (protein)
chain: LTILVALALFLLAAHASARQQWELQGDRRCQSQLERANLRPCEQHLMQKIQRDEDSYERDPYSPSQDPYSPSPYDRRGAGSSQHQERCCNELNEFENNQRCMCEALQQIMENQSDRLQGRQQEQQFKRELRNLPQQCGLRAPQRCDLDVESGGRDRY
modifications: Peanut Ara h 2
notes: major peanut allergen, a glycoprotein of the conglutin seed storage family
- peanut allergic subjects possessing IgE reactive to Ara h 2 doublet (serum IgE; 22 peanut allergic subjects): 20 out of the 22
- IgE binding to Ara h 2 in non-peanut allergic controls (serum IgE; non-peanut allergic controls): weak and potentially non-specific
- sera reactive with Ara h 2 (specific IgE; Burks et al, 1992): 6 out of 6
- subjects with specific IgE to purified natural Ara h 2 (specific IgE; de Jong et al. 1998): approximately 78%
- subjects possessing specific IgE to Ara h 2 (specific IgE; western blotting of crude peanut extract, Clarke et al. 1998): 71%
- subjects possessing IgE towards the recombinant form (specific IgE; western blotting, Kleber-Janke et al. 1999): 85%
